# Data published in paper PMC13245873, “Uridine cytidine kinases govern molnupiravir bioactivation and anti-SARS-CoV-2 activity” (PLOS Pathogens, 2026).
# T1: UCK1 (Homo sapiens, UniProt Q9HA47)
# T1 construct: amino acids 21–235, N-terminal His tag
# T1 sequence (Q9HA47 21-235): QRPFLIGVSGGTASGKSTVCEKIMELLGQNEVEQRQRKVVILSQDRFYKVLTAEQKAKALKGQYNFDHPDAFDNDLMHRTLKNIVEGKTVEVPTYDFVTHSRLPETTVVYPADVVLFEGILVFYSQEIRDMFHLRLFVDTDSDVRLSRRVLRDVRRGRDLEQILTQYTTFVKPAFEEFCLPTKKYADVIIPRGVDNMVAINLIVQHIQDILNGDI
# T2: UCK1 (Homo sapiens, UniProt Q9HA47)
# T2 construct: recombinant, N-terminal His tag
# T2 sequence (Q9HA47 1-277): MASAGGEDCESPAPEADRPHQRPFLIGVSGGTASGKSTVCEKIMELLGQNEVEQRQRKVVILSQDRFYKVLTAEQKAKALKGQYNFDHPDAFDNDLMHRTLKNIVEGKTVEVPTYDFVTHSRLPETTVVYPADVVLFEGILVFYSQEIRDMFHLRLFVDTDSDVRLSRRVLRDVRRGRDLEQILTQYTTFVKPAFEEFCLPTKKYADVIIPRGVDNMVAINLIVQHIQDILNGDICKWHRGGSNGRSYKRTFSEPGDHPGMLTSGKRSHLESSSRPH
# T3: UCK2 (Homo sapiens, UniProt Q9BZX2)
# T3 construct: recombinant, C-terminal His tag
# T3 sequence (Q9BZX2 2-261): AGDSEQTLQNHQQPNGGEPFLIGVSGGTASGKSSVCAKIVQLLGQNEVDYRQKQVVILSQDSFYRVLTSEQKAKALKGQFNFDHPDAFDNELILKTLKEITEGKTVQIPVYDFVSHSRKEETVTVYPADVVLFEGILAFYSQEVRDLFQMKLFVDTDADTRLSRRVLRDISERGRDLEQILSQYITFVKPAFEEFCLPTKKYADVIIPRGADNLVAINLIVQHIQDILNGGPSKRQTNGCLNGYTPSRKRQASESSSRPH
# B1: human UCK1 construct (amino acids 21–235) (enzyme, UniProt Q9HA47 21-235, looked up)
# chain: T1 sequence (Q9HA47 21-235)
# notes: uridine cytidine kinase 1 (UCK1), human, residues 21-235; cDNA optimized for expression in E. coli, in pET24a(+); Tetramer by gel filtration and in the crystal's asymmetric unit; also called hUCK1; uridine cytidine kinase 1; source: E. coli BL21 (DE3), purified (IMAC, SEC)
# B2: UCK2 (Homo sapiens) (protein)
# chain: T3 sequence (Q9BZX2 2-261)
# notes: recombinant, C-terminal His tag
# Experiments:
# [1] = target: T1, UCK1; test: X-ray co-crystal structure ([…] Å, with NHC); format: binding
# [2] = target: T2, UCK1; test: ADP-Glo-coupled kinase kinetics; DSF dose-response; format: biochemical
# [3] = target: T3, UCK2; test: ADP-Glo-coupled kinase kinetics (kcat/Km); DSF dose-response; format: biochemical
# [4] = target: the molecule itself; test: SEC; gel filtration of purified recombinant UCK1 (amino acids 21–235) on a Superdex200 increase 10/300 GL column; single peak
# [5] = substrate: O=c1nc(NO)ccn1[C@@H]1O[C@H](CO)[C@@H](O)[C@H]1O; test: purified protein; format: binding, Homo sapiens; conditions: AMPPNP (ATP site) and Mg2+ active site; π-stacking with F86 and F117; H-bonds with D65, D87, Y115, H120, R160 and the ATP gamma-phosphate
# [6] = substrate: O=c1nc(NO)ccn1[C@@H]1O[C@H](CO)[C@@H](O)[C@H]1O; test: ADP-Glo-coupled kinase kinetics (Km); DSF dose-response; format: biochemical, Homo sapiens; conditions: ATP, Mg2+
# Excerpt: ADP-Glo-coupled kinase kinetics (Km); DSF dose-response on UCK2 | NHC was a substrate for both UCK1 and UCK2
molecule,measurement,setting,value
"Nc1ncnc2c1ncn2[C@@H]1O[C@H](CO[P@](=O)(O)O[P@](=O)(O)NP(=O)(O)O)[C@@H](O)[C@H]1O [AMPPNP, adenosine 5’-(β,γ-imido)triphosphate]","X-ray co-crystal structure (2.40 Å, with NHC)",[1],"AMPPNP binds in a pocket closer to the surface, and is positioned by H-bonds between the phosphate group and residues"
"Nc1ccn([C@@H]2O[C@H](CO)[C@@H](O)[C@H]2O)c(=O)n1 [C, cytidine]",ADP-Glo-coupled kinase kinetics; DSF dose-response,[2],"Using cytidine as the substrate, the ADP-Glo-coupled kinase activity assay produced kinetic parameters"
same,ADP-Glo-coupled kinase kinetics (kcat/Km); DSF dose-response,[3],56666.7 M⁻¹ s⁻¹
B1,stoichiometry N,[4],4
same,Km,[5],1140 ± 320 µM
B2,Km,[6],260 ± 70 µM
